Patent publication US20240368163A1, “COMPOUNDS AND METHODS FOR MODULATING SPLICING” (REMIX THERAPEUTICS INC., priority 2021, published 2024)
Like-named read-outs stand apart in the source and are kept apart here.

Legend:
Assay type in all cases: cell-based, human
HTT [1] = experiment: HiBiT protein abundance assay, HTT; settings: Table 13A, modified K562 cells
Procedure, shortened: (§1)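 Tagged-target degradation assay: HiBiT-modified K562 cells treated 24 h with compound, 10 concentrations up to 10 μM final. Following lysis with LgBiT and substrate, luminescence gave normalized abundance; IC50 derived by logistic interpolation at 50%.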

Target C [2] = experiment: Splicing RT-qPCR panel, Target C canonical junction (CJ) mRNA; settings: RT-qPCR panel, canonical junction mRNA, compound concentration having 50% response in CJ decrease, read-out: Target C IC50 (decrease in CJ mRNA levels)
Procedure, shortened: (§2)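 A673 or K562 cells treated 24 h at 37 °C with 11-point 3-fold dilutions, top 10 uM, DMSO ≤0.25%. Lysates read by RT-qPCR for CJ and AJ isoforms, normalized to GAPDH, GUSB or PPIA; ΔΔCt vs DMSO converted to RQ, then percent response.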

MYB [3] = experiment: HiBiT protein abundance assay, MYB; settings: Table 13A, modified K562 cells
Procedure, shortened: as §1

SMN2 = experiment: Splicing RT-qPCR panel, SMN2 canonical junction (CJ) mRNA; settings: RT-qPCR panel, canonical junction mRNA, compound concentration having 50% response in CJ decrease, read-out: SMN2 IC50 (decrease in CJ mRNA levels)
Procedure, shortened: as §2

Target C [4] = experiment: HiBiT protein abundance assay, Target C; settings: Table 13A, modified K562 cells
Procedure, shortened: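 Target tagged with HiBiT by knock-in; 24 h dosing, 10 μM top final in 3-fold steps. IC50 from 4PL fit of normalized luminescence.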

MYB [5] = experiment: Splicing RT-qPCR assay, MYB mRNA canonical junction (CJ) and alternative junction (AJ); settings: for AC50: increase in AJ mRNA
Procedure, shortened: as §2

HTT [6] = experiment: Splicing RT-qPCR assay, HTT mRNA canonical junction (CJ) and alternative junction (AJ); settings: for AC50: increase in AJ mRNA
Procedure, shortened: as §2

[7] = Homo sapiens, 24 h, decrease in CJ mRNA, A673 or K562 cells, 24 hours treatment, RT-qPCR, read-out: MYB CJ IC50
[8] = Homo sapiens, 24 h, A673 or K562 cells, 24 hours treatment, RT-qPCR
[9] = Homo sapiens, RT-qPCR panel, canonical junction mRNA, compound concentration having 50% response in CJ decrease, read-out: MYB IC50 (decrease in CJ mRNA levels)
[10] = Homo sapiens, 24 h, decrease in CJ mRNA, A673 or K562 cells, 24 hours treatment, RT-qPCR, read-out: HTT CJ IC50
[11] = Homo sapiens, RT-qPCR panel, canonical junction mRNA, compound concentration having 50% response in CJ decrease, read-out: HTT IC50 (decrease in CJ mRNA levels)

SMILES	IC50 (HTT [1]; Homo sapiens, K562, 24 h)	IC50 (Target C [2]; Homo sapiens)	IC50 (MYB [3]; Homo sapiens, K562, 24 h)	IC50 (SMN2; Homo sapiens)	IC50 (Target C [4]; Homo sapiens, K562, 24 h)	IC50 (MYB [5]; [7])	AC50 (MYB [5]; [8])	IC50 (MYB [5]; [9])	IC50 (HTT [6]; [10])	AC50 (HTT [6]; [8])	IC50 (HTT [6]; [11])	IC50 (Target C [4]; 24 hours)	IC50 (HTT [1]; 24 hours)	IC50 (Target C [2])	IC50 (MYB [3]; 24 hours)	IC50 (SMN2)	IC50 (MYB [5]; RT-qPCR panel, canonical junction mRNA, compound concentration having 50% response in CJ decrease, read-out: MYB IC50 (decrease in CJ mRNA levels))	IC50 (MYB [5]; decrease in CJ mRNA, A673 or K562 cells, 24 hours treatment, RT-qPCR, read-out: MYB CJ IC50)	IC50 (HTT [6]; RT-qPCR panel, canonical junction mRNA, compound concentration having 50% response in CJ decrease, read-out: HTT IC50 (decrease in CJ mRNA levels))	IC50 (HTT [6]; decrease in CJ mRNA, A673 or K562 cells, 24 hours treatment, RT-qPCR, read-out: HTT CJ IC50)
Cn1cc(-c2c(F)cc(-c3ccc(OC4CC(C)(C)NC(C)(C)C4)nn3)c3[nH]ncc23)cn1 [Compound 319, 5-fluoro-4-(1-methylpyrazol-4-yl)-7-{6-[(2,2,6,6-tetramethylpiperidin-4-yl)oxy]pyridazin-3-yl}-1H-indazole]	0.1 to 1 µM	1 to 10 µM	0.1 to 1 µM	< 0.1 µM	1 to 10 µM	0.1 to 1 µM	1 to 10 µM	0.1 to 1 µM	0.1 to 1 µM	0.1 to 1 µM	0.1 to 1 µM	–	–	–	–	–	–	–	–	–
CN(c1ccc(-c2cc(F)c(-c3cnn(C)c3)c3cn[nH]c23)nn1)C1CC(C)(C)NC(C)(C)C1 [Compound 320, 6-[5-fluoro-4-(1-methylpyrazol-4-yl)-1H-indazol-7-yl]-N-methyl-N-(2,2,6,6-tetramethylpiperidin-4-yl)pyridazin-3-amine]	0.1 to 1 µM	1 to 10 µM	0.1 to 1 µM	< 0.1 µM	–	0.1 to 1 µM	–	0.1 to 1 µM	0.1 to 1 µM	0.1 to 1 µM	0.1 to 1 µM	0.1 to 1 µM	–	–	–	–	–	–	–	–
Cn1ncc(-c2ccc(-c3ccc(O[C@@H]4C[C@H]5CC[C@@H](C4)N5)nn3)c3[nH]ncc23)n1 [Compound 321, 7-{6-[(1R,3S,5S)-8-azabicyclo[3.2.1]octan-3-yloxy]pyridazin-3-yl}-4-(2-methyl-1,2,3-triazol-4-yl)-1H-indazole]	0.1 to 1 µM	0.1 to 1 µM	0.1 to 1 µM	< 0.1 µM	0.1 to 1 µM	0.1 to 1 µM	0.1 to 1 µM	0.1 to 1 µM	0.1 to 1 µM	0.1 to 1 µM	0.1 to 1 µM	–	–	–	–	–	–	–	–	–
Cn1ncc(-c2ccc(-c3ccc(N[C@@H]4C[C@H]5CC[C@@H](C4)N5)nn3)c3[nH]ncc23)n1 [Compound 322]	< 0.1 µM	< 0.1 µM	< 0.1 µM	< 0.1 µM	< 0.1 µM	< 0.1 µM	< 0.1 µM	< 0.1 µM	–	< 0.1 µM	< 0.1 µM	–	–	–	–	–	–	–	–	–
Cn1cc(-c2ccc(-c3ccc(O[C@@H]4C[C@H]5CC[C@@H](C4)N5)nn3)c3[nH]ncc23)nn1 [Compound 323, 7-{6-[(1R,3S,5S)-8-azabicyclo[3.2.1]octan-3-yloxy]pyridazin-3-yl}-4-(1-methyl-1,2,3-triazol-4-yl)-1H-indazole]	0.1 to 1 µM	1 to 10 µM	0.1 to 1 µM	< 0.1 µM	1 to 10 µM	0.1 to 1 µM	0.1 to 1 µM	0.1 to 1 µM	0.1 to 1 µM	0.1 to 1 µM	0.1 to 1 µM	–	–	–	–	–	–	–	–	–
Cn1cc(-c2ccc(-c3ccc(N[C@@H]4C[C@H]5CC[C@@H](C4)N5)nn3)c3[nH]ncc23)nn1 [Compound 324, (1R,3s,5S)-N-(6-(4-(1-methyl-1H-1,2,3-triazol-4-yl)-1H-indazol-7-yl)pyridazin-3-yl)-8-azabicyclo[3.2.1]octan-3-amine]	1 to 10 µM	> 10 µM	1 to 10 µM	0.1 to 1 µM	1 to 10 µM	1 to 10 µM	1 to 10 µM	1 to 10 µM	1 to 10 µM	1 to 10 µM	1 to 10 µM	–	–	–	–	–	–	–	–	–
Cn1cc(-c2ccc(-c3ccc(OC4CC(C)(C)NC(C)(C)C4)nn3)c3[nH]ncc23)nn1 [Compound 325, 4-(1-methyl-1H-1,2,3-triazol-4-yl)-7-(6-((2,2,6,6-tetramethylpiperidin-4-yl)oxy)pyridazin-3-yl)-1H-indazole]	1 to 10 µM	> 10 µM	1 to 10 µM	0.1 to 1 µM	> 10 µM	1 to 10 µM	1 to 10 µM	1 to 10 µM	1 to 10 µM	1 to 10 µM	1 to 10 µM	–	–	–	–	–	–	–	–	–
CN(c1ccc(-c2cc(F)c(-c3cnn(C)c3)c3cn[nH]c23)nn1)C1CC(C)(C)NC(C)(C)C1 [Compound 326, 6-[5-fluoro-4-(1-methylpyrazol-4-yl)-1H-indazol-7-yl]-N-methyl-N-(2,2,6,6-tetramethylpiperidin-4-yl)pyridazin-3-amine]	–	–	–	–	–	–	–	–	–	–	–	1 to 10 µM	0.1 to 1 µM	1 to 10 µM	0.1 to 1 µM	< 0.1 µM	0.1 to 1 µM	0.1 to 1 µM	0.1 to 1 µM	0.1 to 1 µM
c1n[nH]cc1-c1ccc(-c2ccc(O[C@@H]3C[C@H]4CC[C@@H](C3)N4)nn2)c2cn[nH]c12 [Compound 328]	> 10 µM	> 10 µM	1 to 10 µM	1 to 10 µM	> 10 µM	> 10 µM	> 10 µM	> 10 µM	> 10 µM	> 10 µM	> 10 µM	–	–	–	–	–	–	–	–	–
CN(c1ccc(-c2ccc(-c3cn[nH]c3)c3[nH]ncc23)nn1)[C@@H]1C[C@H]2CC[C@@H](C1)N2 [Compound 329]	> 10 µM	> 10 µM	> 10 µM	1 to 10 µM	> 10 µM	> 10 µM	> 10 µM	> 10 µM	> 10 µM	> 10 µM	> 10 µM	–	–	–	–	–	–	–	–	–
CN(c1ccc(-c2ccc(-c3cnn(C)c(=O)c3)c3ncsc23)nn1)C1CC(C)(C)NC(C)(C)C1 [Compound 331, 2-methyl-5-(7-{6-[methyl(2,2,6,6-tetramethylpiperidin-4-yl)amino]pyridazin-3-yl}-1,3-benzothiazol-4-yl) pyridazin-3-one]	0.1 to 1 µM	> 10 µM	1 to 10 µM	0.1 to 1 µM	> 10 µM	1 to 10 µM	1 to 10 µM	1 to 10 µM	1 to 10 µM	1 to 10 µM	1 to 10 µM	–	–	–	–	–	–	–	–	–
c1cnn(-c2ccc(-c3ccc(O[C@@H]4C[C@H]5CC[C@@H](C4)N5)nn3)c3scnc23)c1 [Compound 334]	0.1 to 1 µM	> 10 µM	0.1 to 1 µM	0.1 to 1 µM	1 to 10 µM	> 10 µM	1 to 10 µM	> 10 µM	0.1 to 1 µM	1 to 10 µM	0.1 to 1 µM	–	–	–	–	–	–	–	–	–
